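48-hour exposure; five concentrations; linearly interpolated endpoints. Here, GI50 denotes the concentration required for 50% inhibition of growth.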 The source made the active and inactive calls. No stated cut-off is given here; in the data, active = GI50 up to about 1.1 µM and inactive = higher.
Legend:
Experiment in all cases: NCI anticancer screen, dose series, 48 h
OVCAR-8 = tested on: OVCAR-8
SN12C = tested on: SN12C
TK-10 = tested on: TK-10
K562 = tested on: K562
T47D = tested on: T47D
SR = tested on: SR
KM12 = tested on: KM12
SF-268 = tested on: SF-268
SK-MEL-2 = tested on: SK-MEL-2
UACC-257 = tested on: UACC-257
OVCAR-4 = tested on: OVCAR-4
SF-295 = tested on: SF-295
MOLT-4 = tested on: MOLT-4
A498 = tested on: A498
NCI-H226 = tested on: NCI-H226
ACHN = tested on: ACHN
EKVX = tested on: EKVX
SK-MEL-5 = tested on: SK-MEL-5
HOP-62 = tested on: HOP-62
LOX IMVI = tested on: LOX IMVI
Hs-578T = tested on: Hs-578T
CCRF-CEM = tested on: CCRF-CEM
SK-OV-3 = tested on: SK-OV-3
NCI/ADR-RES = tested on: NCI/ADR-RES
UACC-62 = tested on: UACC-62
U-251 = tested on: U-251
DU-145 = tested on: DU-145
HL-60 = tested on: HL-60
Malme-3M = tested on: Malme-3M
OVCAR-3 = tested on: OVCAR-3
NCI-H460 = tested on: NCI-H460
MDA-MB-231 = tested on: MDA-MB-231
MDA-N = tested on: MDA-N
SF-539 = tested on: SF-539
IGROV-1 = tested on: IGROV-1
OVCAR-5 = tested on: OVCAR-5
CAKI-1 = tested on: CAKI-1
MDA-MB-435 = tested on: MDA-MB-435
NCI-H522 = tested on: NCI-H522
SK-MEL-28 = tested on: SK-MEL-28
NCI-H23 = tested on: NCI-H23
MCF7 = tested on: MCF7
786-0 = tested on: 786-0
A549 = tested on: A549
SNB-75 = tested on: SNB-75
HT-29 = tested on: HT-29
SNB-19 = tested on: SNB-19
PC-3 = tested on: PC-3
UO-31 = tested on: UO-31
COLO 205 = tested on: COLO 205
RPMI-8226 = tested on: RPMI-8226
M14 = tested on: M14
HCT-116 = tested on: HCT-116
HOP-92 = tested on: HOP-92
RXF 393 = tested on: RXF 393
SW-620 = tested on: SW-620
HCT-15 = tested on: HCT-15

For `C[N+](C)(C)CC(=O)N/N=C\c1c(O)ccc2ccccc12`, the GI50 (OVCAR-8) was 26.3 µM (inactive), the GI50 (SN12C) was 32.2 µM (inactive) and the GI50 (TK-10) was 28.2 µM (inactive). The GI50 (K562) was 31.9 µM (inactive), the GI50 (T47D) was 32.9 µM (inactive) and the GI50 (SR) was 33.2 µM (inactive). For the same molecule, the GI50 (KM12) was 32.4 µM (inactive), the GI50 (SF-268) was 10.7 µM (inactive) and the GI50 (SK-MEL-2) was 28.3 µM (inactive). The GI50 (UACC-257) was 18.7 µM (inactive), the GI50 (OVCAR-4) was 32.2 µM (inactive) and the GI50 (SF-295) was 46.1 µM (inactive). The GI50 (MOLT-4) was 9.08 µM (inactive), the GI50 (A498) was 29.5 µM (inactive) and the GI50 (NCI-H226) was 21 µM (inactive). The GI50 (ACHN) was 32.7 µM (inactive), the GI50 (EKVX) was 35.7 µM (inactive) and the GI50 (SK-MEL-5) was 16.2 µM (inactive). For the same molecule, the GI50 (HOP-62) was 26.7 µM (inactive), the GI50 (LOX IMVI) was 32.7 µM (inactive) and the GI50 (Hs-578T) was 14.4 µM (inactive). The GI50 (CCRF-CEM) was 27.8 µM (inactive), the GI50 (SK-OV-3) was 34.8 µM (inactive) and the GI50 (NCI/ADR-RES) was 33.7 µM (inactive). For the same molecule, the GI50 (UACC-62) was 28.2 µM (inactive), the GI50 (U-251) was 21.4 µM (inactive) and the GI50 (DU-145) was 23.8 µM (inactive). The GI50 (HL-60) was 14.2 µM (inactive), the GI50 (Malme-3M) was 11.9 µM (inactive) and the GI50 (OVCAR-3) was 35.9 µM (inactive). The GI50 (NCI-H460) was 18.1 µM (inactive), the GI50 (MDA-MB-231) was 92.9 µM (inactive) and the GI50 (MDA-N) was 42.9 µM (inactive). For the same molecule, the GI50 (SF-539) was 31.5 µM (inactive), the GI50 (IGROV-1) was 20 µM (inactive) and the GI50 (OVCAR-5) was 57.1 µM (inactive). The GI50 (CAKI-1) was 40.9 µM (inactive), the GI50 (MDA-MB-435) was 39.3 µM (inactive) and the GI50 (NCI-H522) was 16.2 µM (inactive). For the same molecule, the GI50 (SK-MEL-28) was 48.2 µM (inactive), the GI50 (NCI-H23) was 36 µM (inactive) and the GI50 (MCF7) was 59.7 µM (inactive). The GI50 (786-0) was 37.8 µM (inactive), the GI50 (A549) was > 100 µM (inactive) and the GI50 (SNB-75) was 16.8 µM (inactive). The GI50 (HT-29) was > 100 µM (inactive), the GI50 (SNB-19) was 63.4 µM (inactive) and the GI50 (PC-3) was 37.6 µM (inactive). For the same molecule, the GI50 (UO-31) was 33.3 µM (inactive), the GI50 (COLO 205) was > 100 µM (inactive) and the GI50 (RPMI-8226) was 32.1 µM (inactive). For the same molecule, the GI50 (M14) was 31.5 µM (inactive), the GI50 (HCT-116) was 42.6 µM (inactive) and the GI50 (HOP-92) was 13.2 µM (inactive). The GI50 (RXF 393) was 20.9 µM (inactive), the GI50 (SW-620) was 63.5 µM (inactive) and the GI50 (HCT-15) was 27.7 µM.
